Reference: patent US12559464B2, “Quinazolinone dione compounds and uses thereof” (Edgewise Therapeutics, Inc., priority 2023, dated 2026)

Assays:
[1] = test system: myosin ATPase, Rabbit Psoas myofibrils; assay: Myofibril ATPase assay, rabbit psoas (skeletal) myofibrils; assay type: biochemical; conditions: Rabbit Psoas Prep pCa 25 GEOM_MEAN; for Rabbit Psoas EC25 (Y75 value): concentration required to reduce myosin ATP-ase activity by 25%; for Rabbit Psoas Y125 value (marked #): concentration required to increase myosin ATP-ase activity by 25%
Experimental: [Worded in the source for another species; this species is reported under the same test.] (§1) Myofibril ATPase assays are known in the art to be useful in evaluating small molecules for the treatment of HCM and other cardiac indications. Myosin ATPase activity is assessed by using a coupled reaction system, in which ADP generated by the myosin ATPase function is coupled to the disappearance of NADH through the pyruvate kinase/lactate dehydrogenase (PK-LDH) system. ATPase activity produces ADP, which is used as a substrate for PK to produce pyruvate and regenerate ATP. The pyruvate is then used as a substrate by LDH to oxidize NADH to NAD+. The rate of the reaction is monitored through the time-dependent disappearance of NADH using absorbance at 340 nm, which, when the couple system is in stoichiometric excess, is directly correlated to the ATPase activity of the myosin. Inhibition of ATPase activity by the assayed compounds is indicated by a reduced rate of NADH loss, relative to vehicle-treated controls, over the experimental time window. Porcine Ventricle are the primary sources of myofibril material.
(§2) Materials: The following stock solutions and reagents were used in the Myofibril ATPase Assay: Stock Solutions; PIPES, 200 mM and 120 mM in H2O, pH 7.0; MgCl2 in H2O, 200 mM; PM12 Buffer, 10×: 120 mM PIPES (from 200 mM stock), 20 mM MgCl2 (from 200 mM stock); PBS Buffer, 1X: 135 mM NaCl, […], 10 mM Na(PO4)2, 1.8 mM K2(PO4), pH 7.4; EGTA in H2O, 250 mM; CaCl2) in H2O, 500 mM; DTT in H2O, 1 M; BSA in H2O, 10 mg/mL; ATP in 1×PBS, 50 mM; NADH in 1X PM12 and 1 mM DTT, 26 mM; PEP in 1X PM12, 78 mM, pH 7.0.
(§3) Stock Solutions of pCa buffer. Combine PIPES, CaCl2, and EGTA solutions with water. Adjust pH to 7.0 and bring final volume to 100 mL.
(§4) Buffer A & Buffer B. Prepare buffers A and B according to the table below.
(§5) Myofibril ATPase Assay Procedure: BSA, ATP, NADH, PEP, and DTT solutions were thawed at room temperature, then transferred to ice. Pellet-frozen myofibrils were transferred with approximately twice the required volume into a sufficiently large tube and capped. Myofibrils were thawed by rolling in a water bath for approximately 15 min at room temperature and cooled on ice. Buffers A and B were prepared by adjusting volumes as necessary for required number of wells and stored on ice. 0.5 μL of the compounds to be assayed were added into wells. 25 μL of Buffer A was dispensed into the wells, followed by 25 μL of Buffer B. The wells were measured for absorbance at 340 nm, using a kinetic protocol in which the wells are read every 1.5-2 min for 75 min. Assay data analysis was performed using a python script that filtered the raw data to retain those points falling between a starting and ending time and between a maximum and minimum absorbance, then used the filtered time-domain 340 nm absorbance data in each well to calculate a slope via linear regression analysis in units of mAU/min. Compound slopes were normalized between 100% and 0% activity, where 100% represented the slope of wells containing only compound vehicle, and fit to a 4-parameter logistic model. In addition to the fit parameters, the EC25% values were calculated, relative to the 100% normalized value. Additionally, the Y125 values were calculated for compounds that increased myosin ATP-ase activity. Fit parameters, calculated effective concentrations, filtered raw data, and calculated slopes were exported, in addition to compound-specific graphs of normalized ATPase activity versus concentration in μM. Each value reported in Table 8 is either a Y75 value or a Y125 value. Values without pound sign, #, are Y75 values, which reflect the concentration required to reduce myosin ATP-ase activity by 25% (e.g., Y-axis activity value is 75% of initial value), relative to myosin ATP-ase activity in the absence of exogenous compound. […]

[2] = test system: myosin ATPase, Porcine Atria myofibrils; assay: Myofibril ATPase assay, porcine atria myofibrils; assay type: biochemical; conditions: concentration required to reduce myosin ATP-ase activity by 25%; Porcine Atria Prep pCa 25 GEOM_MEAN
[3] = target: T1, myosin ATPase, Porcine Ventricle myofibrils (Sus scrofa, UniProt P79293); assay: Myofibril ATPase assay, porcine ventricle myofibrils; assay type: biochemical, porcine (Yucatan minipigs); conditions: concentration required to reduce myosin ATP-ase activity by 25%; Porcine Ventricle Prep pCa 25 GEOM_MEAN
T1 construct: Myofibrils from porcine cardiac muscle was isolated from the left ventricle of Yucatan minipigs; tissue Exemplar Genetics; host or cells: left ventricle of Yucatan minipigs, myofibrils
Experimental: as §1, §2, §3, §4, §5

T1 sequence (P79293 whole entry): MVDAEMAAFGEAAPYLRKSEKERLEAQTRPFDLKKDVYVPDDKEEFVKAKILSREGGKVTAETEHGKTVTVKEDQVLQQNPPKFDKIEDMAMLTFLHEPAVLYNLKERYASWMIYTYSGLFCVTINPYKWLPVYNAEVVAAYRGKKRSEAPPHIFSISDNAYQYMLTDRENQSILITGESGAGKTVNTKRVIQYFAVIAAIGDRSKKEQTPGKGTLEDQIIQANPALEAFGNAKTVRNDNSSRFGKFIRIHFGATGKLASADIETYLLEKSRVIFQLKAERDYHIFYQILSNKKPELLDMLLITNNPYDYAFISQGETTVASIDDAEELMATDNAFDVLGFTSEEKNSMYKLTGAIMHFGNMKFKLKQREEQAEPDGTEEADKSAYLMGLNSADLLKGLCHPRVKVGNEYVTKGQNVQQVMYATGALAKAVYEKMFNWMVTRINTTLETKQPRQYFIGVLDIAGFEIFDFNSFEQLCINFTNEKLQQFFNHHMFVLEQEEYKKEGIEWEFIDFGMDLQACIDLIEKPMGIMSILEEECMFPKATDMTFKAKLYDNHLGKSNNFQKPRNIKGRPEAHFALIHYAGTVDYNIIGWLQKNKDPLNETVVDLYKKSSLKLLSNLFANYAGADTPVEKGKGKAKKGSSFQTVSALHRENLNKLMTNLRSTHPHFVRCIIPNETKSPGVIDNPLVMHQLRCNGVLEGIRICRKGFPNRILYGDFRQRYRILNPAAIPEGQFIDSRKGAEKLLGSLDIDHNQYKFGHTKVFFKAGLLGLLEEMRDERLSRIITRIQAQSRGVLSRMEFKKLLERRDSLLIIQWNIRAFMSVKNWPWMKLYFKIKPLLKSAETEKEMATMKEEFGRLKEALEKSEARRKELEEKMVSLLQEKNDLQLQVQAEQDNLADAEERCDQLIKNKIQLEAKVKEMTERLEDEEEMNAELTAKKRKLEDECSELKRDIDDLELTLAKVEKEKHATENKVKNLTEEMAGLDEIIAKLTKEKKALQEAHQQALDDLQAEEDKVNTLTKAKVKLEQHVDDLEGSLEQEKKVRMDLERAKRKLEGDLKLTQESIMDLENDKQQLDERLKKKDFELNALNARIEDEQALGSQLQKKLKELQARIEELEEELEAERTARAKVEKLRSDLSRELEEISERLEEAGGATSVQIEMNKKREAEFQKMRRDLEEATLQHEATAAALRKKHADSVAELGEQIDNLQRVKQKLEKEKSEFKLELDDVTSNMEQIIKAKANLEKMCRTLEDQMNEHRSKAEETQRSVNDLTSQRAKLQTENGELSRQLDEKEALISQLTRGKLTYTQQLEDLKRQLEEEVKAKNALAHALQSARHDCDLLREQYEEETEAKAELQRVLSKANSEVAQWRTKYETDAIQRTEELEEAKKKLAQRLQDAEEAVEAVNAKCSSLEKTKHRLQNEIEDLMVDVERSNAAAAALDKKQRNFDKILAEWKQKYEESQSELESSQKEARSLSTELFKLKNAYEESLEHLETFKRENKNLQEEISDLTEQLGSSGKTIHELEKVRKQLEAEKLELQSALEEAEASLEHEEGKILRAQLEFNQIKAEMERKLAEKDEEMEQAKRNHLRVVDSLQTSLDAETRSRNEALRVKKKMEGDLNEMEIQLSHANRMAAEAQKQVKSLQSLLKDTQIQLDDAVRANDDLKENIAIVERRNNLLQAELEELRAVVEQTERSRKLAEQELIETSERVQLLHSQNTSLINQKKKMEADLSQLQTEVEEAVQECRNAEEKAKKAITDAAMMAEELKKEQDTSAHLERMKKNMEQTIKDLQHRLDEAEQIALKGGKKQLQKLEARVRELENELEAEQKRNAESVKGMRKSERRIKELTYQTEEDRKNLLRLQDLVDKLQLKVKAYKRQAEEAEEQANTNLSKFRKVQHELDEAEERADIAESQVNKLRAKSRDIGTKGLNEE

| Structure (SMILES) | Rabbit Psoas EC25 (Y75 value) [1] | Porcine Atria EC25 (Y75 value) [2] | Porcine Ventricle EC25 (Y75 value) [3] | Rabbit Psoas Y125 value (marked #) [1] |
| --- | --- | --- | --- | --- |
| CC(C)C[C@@H](C(=O)N[C@@H](C)c1ncc(F)cc1F)n1c(=O)[nH]c2ccccc2c1=O (single isomer, unassigned) [Compound 27] | 100 µM | 100 µM | 100 µM |  |
| CC(NC(=O)Cn1c(=O)[nH]c2ccccc2c1=O)c1ccccc1Br (stereo not drawn) [Compound 524, N-(1-(2-bromophenyl)ethyl)-2-(2,4-dioxo-1,4-dihydroquinazolin-3(2H)-yl)acetamide] | 11.968 µM | 73.54 µM | 100 µM |  |
| C[C@H](NC(=O)Cn1c(=O)c2cc(F)ccc2n(C)c1=O)c1ccc(F)cc1F [Compound 404, (S)-N-(1-(2,4-difluorophenyl)ethyl)-2-(6-fluoro-1-methyl-2,4-dioxo-1,4-dihydroquinazolin-3(2H)-yl)acetamide] |  | 12.2 µM | 100 µM | 100^# ^ μM |
| C[C@@H](NC(=O)C1(n2c(=O)[nH]c3cccc(C#N)c3c2=O)CC1)c1ncc(C#N)cc1F (single isomer, unassigned) [Compound 3014] | 100.00 µM | 100.00 µM | 100.00 µM |  |
| C[C@H](NC(=O)Cn1c(=O)[nH]c2ccccc2c1=O)c1ccc(Cl)cc1 (single isomer, unassigned) [Compound 530] | 3.24 µM | 0.445 µM | 4.63 µM |  |
| C[C@H](NC(=O)[C@@H](C)n1c(=O)[nH]c2ccc(F)cc2c1=O)c1ccc(F)cc1F [Compound 41, (R)-N-((S)-1-(2,4-difluorophenyl)ethyl)-2-(6-fluoro-2,4-dioxo-1,4-dihydroquinazolin-3(2H)-yl)propanamide] | 0.828 µM | 1.375 µM | 28.36 µM |  |
| C[C@H](NC(=O)Cn1c(=O)[nH]c2cccc(C#N)c2c1=O)c1ncc(C#N)cn1 (single isomer, unassigned) [Compound 204] | 100 µM | 100 µM | 70.61 µM |  |
| C[C@@H](NC(=O)Cn1c(=O)[nH]c2ccccc2c1=O)c1ccncc1F (single isomer, unassigned) [Compound 100] | 12.272 µM | 31.84 µM | 100 µM |  |
| Cc1cccc2[nH]c(=O)n(CC(=O)N[C@@H](C)c3ccc(F)cc3F)c(=O)c12 [Compound 73, (S)-N-(1-(2,4-difluorophenyl)ethyl)-2-(5-methyl-2,4-dioxo-1,4-dihydroquinazolin-3(2H)-yl)acetamide] | 0.0495 µM | 0.1149 µM | 0.707 µM |  |
| C[C@H](NC(=O)Cn1c(=O)[nH]c2cccnc2c1=O)c1ccc(F)cc1F [Compound 303, (S)-N-(1-(2,4-difluorophenyl)ethyl)-2-(2,4-dioxo-1,4-dihydropyrido[3,2-d]pyrimidin-3(2H)-yl)acetamide] | 23 µM | 100 µM | 100 µM |  |

Second part, the compound after the results:

| Rabbit Psoas EC25 (Y75 value) [1] | Porcine Atria EC25 (Y75 value) [2] | Porcine Ventricle EC25 (Y75 value) [3] | Rabbit Psoas Y125 value (marked #) [1] | Structure (SMILES) |
| --- | --- | --- | --- | --- |
| 100 µM | 100 µM | 100 µM |  | CC(NC(=O)Cn1c(=O)[nH]c2ccccc2c1=O)c1cc(F)ccc1N(C)C (stereo not drawn) [Compound 518, N-(1-(2-(dimethylamino)-5-fluorophenyl)ethyl)-2-(2,4-dioxo-1,4-dihydroquinazolin-3(2H)-yl)acetamide] |
| 100 µM | 100 µM | 100 µM |  | C[C@H](NC(=O)Cn1c(=O)[nH]c2c(Cl)cccc2c1=O)c1ccc(F)cc1F [Compound 408, (S)-2-(8-chloro-2,4-dioxo-1,4-dihydroquinazolin-3(2H)-yl)-N-(1-(2,4-difluorophenyl)ethyl)acetamide] |
| 100 µM | 100 µM | 100 µM |  | CC(C)[C@H](NC(=O)Cn1c(=O)[nH]c2ccccc2c1=O)c1ccc(F)cc1F (single isomer, unassigned) [Compound 50] |
| 0.11 µM | 0.1312 µM | 1.15 µM |  | C[C@H](NC(=O)Cn1c(=O)[nH]c2cccc(F)c2c1=O)c1ccc(F)cc1F [Compound 154, (S)-N-(1-(2,4-difluorophenyl)ethyl)-2-(5-fluoro-2,4-dioxo-1,4-dihydroquinazolin-3(2H)-yl)acetamide] |
| 100 µM | 100 µM | 100 µM |  | C[C@H](NC(=O)Cn1c(=O)[nH]c2ccccc2c1=O)c1ccc(O)nc1 (single isomer, unassigned) [Compound 98] |
| 100 µM | 100 µM | 100 µM |  | C[C@H](NC(=O)Cn1c(=O)[nH]c2ncccc2c1=O)c1ccc(F)cc1F [Compound 302, (S)-N-(1-(2,4-difluorophenyl)ethyl)-2-(2,4-dioxo-1,4-dihydropyrido[2,3-d]pyrimidin-3(2H)-yl)acetamide] |
| 100 µM | 100 µM | 100 µM |  | COc1cc2c(cc1OC)C(NC(=O)Cn1c(=O)[nH]c3ccccc3c1=O)CC2 (stereo not drawn) [Compound 703, N-(5,6-dimethoxy-2,3-dihydro-1H-inden-1-yl)-2-(2,4-dioxo-1,4-dihydroquinazolin-3(2H)-yl)acetamide] |
|  | 56.82 µM | 59.48 µM | 24.3^# μM | CC(C)C[C@@H](C(=O)N[C@@H](C)c1ccc(F)cc1F)n1c(=O)[nH]c2ccccc2c1=O (single isomer, unassigned) [Compound 31] |
| 0.108 µM | 0.094 µM | 0.448 µM |  | C[C@H](NC(=O)Cn1c(=O)[nH]c2ccc(F)cc2c1=O)c1ncc(C#N)cc1F (single isomer, unassigned) [Compound 8] |
|  | 100 µM | 100 µM | 51.2^# μM | C[C@H](NC(=O)[C@H](Cc1ccccc1)n1c(=O)[nH]c2cccc(O)c2c1=O)c1ccc(F)cc1F [Compound 33, (S)-N-((S)-1-(2,4-difluorophenyl)ethyl)-2-(5-hydroxy-2,4-dioxo-1,4-dihydroquinazolin-3(2H)-yl)-3-phenylpropanamide] |
| 100 µM | 100 µM | 100 µM |  | C[C@H](NC(=O)[C@H](CC1CC1)n1c(=O)[nH]c2ccccc2c1=O)c1ncc(F)cc1F (single isomer, unassigned) [Compound 211] |
